Results: patent publication US11512091B2, “Crystal of benzoxazole derivative” (MEIJI SEIKA PHARMA CO., LTD., priority 2018, dated 2022)

How the values were obtained:
[1] = Stability test (storage of crystals, chemical purity by HPLC); type: physicochemical; conditions: for chemical stability (in words): thermal stability test, photostability test, accelerated stability test
Protocol: The I type crystal and the II type crystal of the compound represented by formula (1) were put in glass bottles (in about 300 mg each) and stored under various conditions. After the storage period, the chemical purity of the samples taken out was measured by HPLC. The conditions of each test were as follows.
Thermal stability test: 60° C., hermetically sealed, a period of 3 weeks
Photostability test: 25° C., 1.2 million lux hours (2,000 lux, for 25 days)
Accelerated stability test (hermetically sealed): 40° C., 75% RH*, a period of 1 month
Accelerated stability test (opened): 40° C., 75% RH*, a period of 1 month
As the result of evaluation of each stability, the amount of the compound represented by formula (1) contained in the crystal is presented in Table 1 as a residual ratio (a HPLC area percentage ratio to the initial value, expressed in percentage).

[2] = Hygroscopicity test (isothermal water vapor adsorption, DVS); type: physicochemical; conditions: at 95% RH, 25° C., relative to weight equilibrium value at 0% RH
Protocol: Isothermal adsorption measurement of the I type crystal and the II type crystal of the compound represented by formula (1) was performed, using a water vapor adsorption measurement instrument (available from Surface Measurement Systems Ltd., DVS ADVANTAGE 1) (with a sample of about 10 mg, at 25° C., at from 0% RH through 95% RH). As the result of evaluation of hygroscopicity, a weight increase rate at 95% RH (weight increase from initial value/initial value×100, *initial value: weight equilibrium value at 0% RH) is presented in Table 2.

PDE4 = experiment: Evaluation of PDE4 inhibition (Scintillation Proximity Assay); type: biochemical; conditions: SPA, [3H]-cAMP, room temperature 120 minutes; read-out: PDE4 inhibiting activity (the concentration at an inhibition rate of 50%)
Protocol: The PDE4 inhibiting activity was measured in the following manner, employing Scintillation Proximity Assay (SPA). The specimen compound dissolved in dimethyl sulfoxide and diluted 10 fold with a buffer solution for reaction containing 50 mM Tris-HCl (pH of 7.4), 8.3 mMMgCl2, 1.7 mM EGTA, and 3 mg/mL bovine serum albumin (BSA) was added in 10 microliters in a 96-well assay plate. After PDE4 diluted 375 fold with the buffer solution for reaction was further added in 50 microliters, a [2,8-^3H]-Adenosine-3′,5′-cyclic phosphate triethylammonium salt diluted 1,000 fold with the buffer solution for reaction was added in 40 microliters, and the resultant was left to stand still at room temperature for 120 minutes. […] Subsequently, radioactivity was measured with a liquid scintillation counter for a 96-well plate. The inhibition rate of the compound represented by formula (1) to a control was calculated according to the following calculation formula, where the blank was prepared as the buffer solution for reaction only, with no enzyme preparation, and the control was prepared with the enzyme preparation and with only dimethyl sulfoxide instead of the specimen solution. […]

[3] = Accelerated stability test (hermetically sealed): 40° C., 75% RH, 1 month
[4] = Accelerated stability test (opened): 40° C., 75% RH, 1 month
[5] = Photostability test: 25° C., 1.2 million lux hours (2,000 lux, 25 days)
[6] = Thermal stability test: 60° C., hermetically sealed, 3 weeks

Row | Structure (SMILES) | Residual ratio (%) of compound represented by formula (1) [1, 3] | Residual ratio (%) of compound represented by formula (1) [1, 4] | Residual ratio (%) of compound represented by formula (1) ([1]; Initial value) | Residual ratio (%) of compound represented by formula (1) [1, 5] | Residual ratio (%) of compound represented by formula (1) [1, 6] | chemical stability (in words) [1] | Weight increase rate (%) [2] | IC50 (PDE4)
1 | CC(C)(O)C(F)(F)Oc1ccc(-c2nccs2)c2oc(N3CC4CC(C3)N4)nc12 [I type crystal, 1-((2-(3,6-diazabicyclo[3.1.1]heptan-3-yl)-7-(thiazol-2-yl)benzo[d]oxazol-4-yl)oxy)-1,1-difluoro-2-methylpropan-2-ol] | 100.1% | 100.1% | 100.0% | 100.1% | 99.8% | sufficient chemical stability | 0.6% | –
2 | CC(C)(O)C(F)(F)Oc1ccc(-c2nccs2)c2oc(N3CC4CC(C3)N4)nc12 [compound represented by formula (1), 1-((2-(3,6-diazabicyclo[3.1.1]heptan-3-yl)-7-(thiazol-2-yl)benzo[d]oxazol-4-yl)oxy)-1,1-difluoro-2-methylpropan-2-ol] | – | – | – | – | – | – | – | < 100 nM
3 | CC(C)(O)C(F)(F)Oc1ccc(-c2nccs2)c2oc(N3CC4CC(C3)N4)nc12 [II type crystal, 1-((2-(3,6-diazabicyclo[3.1.1]heptan-3-yl)-7-(thiazol-2-yl)benzo[d]oxazol-4-yl)oxy)-1,1-difluoro-2-methylpropan-2-ol] | 100.1% | 100.0% | 100.0% | 99.5% | 100.0% | sufficient chemical stability | 10.7% | –
